These results are taken from patent US20030170826A1, “Peptides for facilitating composite receptor expression and translocation of macromolecules” (priority 2001, published 2003).

Series [1] concerns SK-BR-3 cells. The note with it: 200 nM peptide, 15 minutes on ice. As for the experimental part: FIG. 3, comprising FIG. 3A, FIG. 3B, and FIG. 3C, is a series of images of fluorescent micrographs illustrating the effects of a cell penetrating domain on the efficiency of composite receptors binding.
SK-BR-3 cells were collected and washed and resuspended in DPBS-BSA. Then, 5×10^4 cells were mixed with 200 nM CR1 or delta-CR1 in 40 μl DPBS-BSA and incubated 15 minutes on ice. The cell were then washed in DPBS-BSA, resuspended in 50 μl DPBS-BSA, washed, and applied to slides. Fluorescence was analyzed by fluorescence microscopy using a monochrome filter for FITC. […] FIG. 3C depicts cells incubated with […] CR1.

The test system of another series is SupFG1 gene. As to the kind of experiment: Chromosomal mutations induced in the SupFG1 gene by triplex forming oligonucleotides. Particulars: murine cell line with SupFG1 gene in the genome; mutations/total plaques. In kind it is cell-based. As for the experimental part: The ability of TAK16 to facilitate translocation of oligonucleotides designed to form triplex DNA complexes with the SupFG1 sequence was tested in a murine cell line in which the SupFG1 gene is incorporated into the genome. The assay used measures chromosomal mutations induced in the SupFG1 gene by triplex forming oligonucleotides, as measured by mutations/total plaques. The ability of TAK16 to translocate triplex forming oligonucleotides was compared to that of Antennapedia (ANTP)-s-s-oligo complex and the lipid delivery system Gene Porter. The two oligonucleotides tested were AG13 (5′-AGGAA8-propylamine-3′; SEQ ID NO: 58) and AG30 (5′-AGGAAG8TGGTG5AG5AG-propylamine-3′; SEQ ID NO: 59). The groups tested were 1) control (no treatment); 2) AG13 alone; 3) AG13+Gene Porter; 4) AG13-s-s-ANTP; 5) AG13+TAK16; 6) AG30+Gene Porter; and 7) AG30+TAK16. […] It can be seen that the two highest mutation rates occurred in cells treated with AG13+TAK16 (group 5; 40×10^−5) and AG30+TAK16 (group 7; 36×10^−5).

The test system of series [2] is SK-BR-3 cells. Particulars: 60 nM CR1 or CR1R, 30 minutes on ice, sodium azide.
Experimental: This difference in membrane orientation can be detected using an anti-FITC antibody which cannot penetrate the cellular membrane and therefore can only bind to an FITC on the outer cell surface. For CR1, FITC is an intracellular domain. However, for CR1R, FITC is an extracellular domain. […] SK-BR-3 cells were collected and washed in DPBS with 0.5% BSA (DPBS-BSA), resuspended in DPBS-BSA with 10 mM Sodium Azide, incubated for 20 minutes at room temperature, transferred to ice. 5×10^4 cells were mixed with 60 nM CR1 or CR1R in 20 μl DPBS-BSA, incubated 30 min on ice, washed in DPBS-BSA -Azide, and then resuspended in 50 μl DPBS-BSA-Azide. Then, 50 μl of anti-antibody in DPBS-BSA-Azide (dilution 1:50) was added, the suspension incubated on ice for 30 minutes, and then the cells were washed and applied to slides. Alexa-Fluor 594 fluorescence was analyzed by microscope using monochrome filter for Cy3.5.
This difference in orientation can be detected using an anti-FITC antibody which cannot penetrate the cellular membrane and therefore can only bind FITC which is on the outside cell surface and not inside the cell. […] Alexa-Fluor 594 fluorescence was analyzed using a fluorescent microscope and a monochrome filter for Cy3.5.
For series [3], the system named is SK-BR-3 cells. As to the kind of experiment: Peptide facilitated translocation of Cy3-O18 oligonucleotide, fluorescence microscopy (FIG. 6). The series is classed as cell-based, human. Particulars: for Cy3 label of the oligonucleotide in cells: mixture of Cy3-oligonucleotide and fluorescein labeled peptide.
In series [4] the test system is HeLa cells. As to the kind of experiment: Peptide mediated uptake of oligonucleotide FITC-O-24, FACS (FIG. 7). Particulars: peptide 0.0-150 μM, fifteen minutes at room temperature. The series is classed as cell-based, human. The method, then:
Flow cytometric analyses of cell subpopulations for these and other experiments described herein were performed using a FACS Vantage flow cytometer (Becton-Dickinson Immunocytometry Systems, San Jose, Calif.). The cells were excited at 488 nm. The FITC fluorescence was collected through a 530/30 nm band pass filter. A minimum of ten thousand cells was interrogated in each sample. Analysis of data was performed using CellQuest software (Becton-Dickinson).
To detect fluorescent labeled molecules associated with cells, the cells were first harvested in DPBS, incubated with a fluorescent labeled molecule of interest at varied concentrations (e.g., oligonucleotide at 50 μM mixed with 1×10^5 cells in 10 μl DPBS), incubated for 15 minutes at room temperature, diluted with 200 μl growth medium, and then analyzed by fluorescence activated cell sorting (FACS).
Next, various peptide sequences and domains were tested for their abilities to facilitate translocation of the oligonucleotide FITC-O-24 across a cell membrane. The peptides tested included: K16 (G4K16; SEQ ID NO: 47); TAT (G4YGRKKRRQR3; SEQ ID NO: 48); TAK8 (G4YGRKKRRQR3G4K8; SEQ ID NO: 49); TAK12 (G4YGRKKRRQR3G4K12; SEQ ID NO: 50) and TAK16/TatK16 (G4YGRKKRRQR3G4K16; SEQ ID NO: 36). HeLa cells (1×10^5) were incubated with the oligonucleotide (0.6 μl, 50 μM) in 10 μl DPBS and various concentrations of the peptides (i.e., 0.0, 1.5, 5.0, 15.0, 50.0, or 150 μM). The cells were incubated in the presence of the mixtures for fifteen minutes at room temperature and then analyzed by FACS.

Series [5] has as its system SK-BR-3 cells. As to the kind of experiment: Localization of fluorescein labeled composite receptor peptides in cells, fluorescence microscopy (FIG. 1). The note with it: 800 nM Tat-K16, 800 nM CR1 or 400 nM CR2, 15 minutes. In kind it is cell-based, human.
Series [6] is described as follows: Intracellular transport of beta-galactosidase conjugated to an oligonucleotide. The series is classed as cell-based. The note with it: similar experiments.
Series [7] has as its system SK-BR-3 cells. As to the kind of experiment: Translocation of fluorescein labeled peptides containing a cell penetrating domain (FIG. 5). The series is classed as cell-based, human. The note with it: 800 nM peptide, fifteen minutes at 37° C.
For series [8], the system named is HeLa cells. The series can be described thus: Peptide-oligo mediated uptake of horseradish peroxidase-avidin (HPA), cytochemical analysis (FIG. 13). In kind it is cell-based, human. Particulars: TAK16 and Bio-O-22, 30 minutes at 37° C. The method, then: To further determine the ability of a fusion peptide to facilitate transport of a molecule associated with a nucleic acid across a cell membrane, TAK16 was tested for its ability to mediate transport of another protein. In this example, the protein horseradish peroxidase (HRP) was tested. The HRP was conjugated to avidin to yield 120 kD Horseradish Peroxidase-Avidin (HPA). Cells were obtained as above. HPA and Bio-O-22 were added to cells in DPBS at final concentrations of 8 μM and 8 μM, respectively, and then incubated for 15 minutes at room temperature. Then, 2.5 μl of the mix was added to 2×10^5 HeLa cells in 10 μl DPBS. Next, 12.5 μl of 100 μM TAK16 in DPBS was added to the mixture and incubated for 30 minutes at 37° C. Then the cells were washed and applied to slides. Cells on the slides were treated with 30 μl peroxidase suppressor solution to suppress endogenous peroxidase, washed with DPBS, treated with 30 μl Metal Enhanced DAB Substrate Working Solution, incubated for 15 minutes at room temperature, and then subjected to microscopic analysis. […] HPA activity or presence was detected using the DAB kit and the manufacturer's protocol.

Series [9] relates to HeLa cells. As to the kind of experiment: Peptide-oligo mediated uptake of avidin-FITC (FIG. 12). The series is classed as cell-based, human.
In series [10] the test system is HeLa cells. The series can be described thus: TAK16 mediated uptake of Cy3 labeled 400 bp double stranded DNA and 5 kb plasmid DNA (FIG. 11). The series is classed as cell-based, human. The method, then:
Next, it was decided to determine whether even larger nucleotides, including double stranded (DS) DNA or plasmid DNA, could be transported into a cell. Specifically, it was determined whether TAK16 could facilitate the transport of 400 base pair (bp) double stranded DNA and a 5 kb circular plasmid DNA (pECFP; enhanced cyano fluorescent protein) into cells. The DNAs were labeled with Cy3 reagent (“Label IT” Cy3 Nucleic Acid Labeling Kit; Mirus, Madison, Wis.), according to manufacturer's directions. This protocol usually yields one label per up to ten nucleotides. To this end, HeLa cells were prepared as above and then incubated with 400 ng of plasmid DNA or 60 ng of 400 bp DNA and with TAK16 (12 μM).

The subject of series [11] is HeLa cells. The series can be described thus: TAK16 mediated uptake of 83-mer oligonucleotide O-83-FITC, FACS and fluorescence microscopy (FIG. 9, 10). In kind it is cell-based, human. The note with it: TAK16 13.3 μM, O-83-FITC 0.00-1.8 μM.
Series [12] concerns HeLa cells. The series can be described thus: TAK16 mediated uptake of FITC-O-24, fluorescence microscopy (FIG. 8). The series is classed as cell-based, human. The note with it: TAK16 0.00, 0.36, 1.80 or 9.00 μM, FITC-O-24 2.5 μM.

Ends that are not written are not given here. {propylamine} = propylamine end group; fluorescein = fluorescein label; fluor = fluorescein label

Consider FITC-G3G3AAL3A19WK8-biotin [delta-CR1], for which the “FITC fluorescence on the cell membrane” value in the series on SK-BR-3 cells [1] is recorded as “low level of fluorescence on the cell membrane”.
As for “5′-AGGAA8-propylamine-3′ (AGGAAAAAAAAA; 3' {propylamine}, sugars by position and backbone not given here) [AG13]”, in the series with SupFG1 gene, the “chromosomal mutation frequency induced in the SupFG1 gene” value is recorded as 8 ×10^−5.
For “biotin-G3YGRKKRRQR3G3AAL3A19WK8-FITC [CR1R]”, the “fluorescence of anti-fluorescein (anti-FITC) antibodies, Alexa-Fluor 594” value in the series on SK-BR-3 cells [2] is recorded as “higher”.
Take “fluor-G4YGRKKRRQR (fluorescein-GGGGYGRKKRRQR) [Tat, reference compound]”: the “Cy3 label of the oligonucleotide in cells” value in the series with SK-BR-3 cells [3] is on record as “not detected”.
With “G4YGRKKRRQR3G4K12 (GGGGYGRKKRRQRRRGGGGKKKKKKKKKKKK; Human immunodeficiency virus type 1) [TAK12]”, the “facilitating transport of FITC-O-24 across the cell membrane” value (from here on “facilitating transport”) in the series on HeLa cells [4] was “decreased ability to facilitate transport”.
As for “G4YGRKKRRQR3G4K8 (GGGGYGRKKRRQRRRGGGGKKKKKKKK; Human immunodeficiency virus type 1) [TAK8]”, in the series with HeLa cells [4], the “facilitating transport” value is “decreased ability to facilitate transport”.
For “G4K16 (GGGGKKKKKKKKKKKKKKKK; FITC-0-24 oligonucleotide cell membrane translocation facilitating peptide) [reference compound]”, in the series with HeLa cells [4], the “facilitating transport” value is “Neither TAT, nor adapter domain, K16, were able to efficiently facilitate transport”.
“fluor-G3YGRKKRRQR3G3AAL3A19WK8-biotin [CR1]”: in the series with SK-BR-3 cells [5], the “localization of fluorescein labeled peptide in the cell” value (“localization … in the cell” below) is recorded as “localized at the periphery of the cells, in a speckled distribution”. For the same molecule, the “FITC fluorescence on the cell membrane” value in the series with SK-BR-3 cells [1] is given as “high levels of fluorescence occur on the cell membrane”.
Regarding “fluor-G4YGRKKRRQR3G4K16 (fluorescein-GGGGYGRKKRRQRRRGGGGKKKKKKKKKKKKKKKK) [Tat-K16]”, the “intracellular transport of a 140 kD protein (beta-galactosidase) conjugated to an oligonucleotide” value in series [6] is “able to facilitate intracellular transport”. In addition, the “entry of peptide into the cell and localization” value in the series with SK-BR-3 cells [7] is “entered the cell and were located in both the cytoplasm and the nucleus”. In the series on HeLa cells [8], the “HPA uptake, with oligonucleotide Bio-O-22” value is “facilitated”. The “oligonucleotide Cy3-O18 translocation through the cell membrane” value in the series with SK-BR-3 cells [3] (500 nM oligonucleotide and 80 nM peptide, fifteen minutes at 37° C.) was “facilitated”. Also, the “Cy3 label of the oligonucleotide in cells” value with SK-BR-3 cells [3] is given as “located in the cytoplasm as well as in the nucleus”. The “localization … in the cell” value in the series with SK-BR-3 cells [5] is on record as “located throughout the cell”. Further, in the series on HeLa cells [4], the “facilitating transport” value is reported as “most efficient”. Moreover, the “fluorescence of avidin-FITC in cells, with oligonucleotide Bio-O-22” value in the series with HeLa cells [9] (TAK16 + Bio-O-22 + avidin-FITC, 20 minutes at 37° C.) was “much higher levels of fluorescence”. Moreover, in the series with HeLa cells [9] (TAK16 and avidin-FITC, without Bio-O-22), the “fluorescence of avidin-FITC in cells, no oligonucleotide” value is listed as “did not exhibit appreciable levels of fluorescence”. For the same molecule, the “cells with uptake of large double stranded DNA molecules, linear and circular” value in the series on HeLa cells [10] (TAK16 12 μM) is reported as around 100%. Further, in the series with HeLa cells [10] ([…], TAK16 12 μM or no peptide), the “uptake of Cy3 labeled 400 bp DS DNA or plasmid DNA (fluorescence)” value is “obvious fluorescence”. In the series with HeLa cells [11] (FACS), the “cell associated fluorescent intensity of O-83-FITC (FACS)” value is “increased with increasing amounts of the 83-mer”. The “cellular associated fluorescence of O-83-FITC (microscopy)” value with HeLa cells [11] (fluorescent microscopic analysis) is recorded as “increased cellular associated fluorescence”. Also, in the series on HeLa cells [12], the “fluorescent intensity associated with FITC-O-24” value is “increased in the cells incubated with increased amounts of TAK16 peptide”.

B1: fluor-G4YGRKKRRQR3G3MPNLWFL2FLGLVA2MQL5FL3F2LVYW DHFECSCTGLPF (peptide)
chain: fluor-GGGGYGRKKRRQRRRGGGMPNLWFLLFLGLVAAMQLLLLLFLLLFFLVYWDHFECSCTGLPF
On to B1, for which the “localization … in the cell” value with SK-BR-3 cells [5] was “localized in a few foci at the cell surface”.
